We go through twelve compounds from paper PMC3569853 (European journal of medicinal chemistry, 2012).

Broadly, the Ki is a dissociation constant, usually derived from enzyme kinetics or from competition with a known ligand.

Read-outs that look alike come from different tables or passages of the source. Some results are limits rather than exact numbers.

The target of experiment [1] is κ-opioid receptor (hKOR-CHO cells) (Homo sapiens, UniProt P41145). Kind of experiment: Opioid receptor binding assay, κ. Conditions: for Ki: [3H]-U69,593, CHO hKOR cells, full binding assay, ±SD; for κ/μ: selectivity ratio Ki κ / Ki μ.
In experiment [2] the target is δ-opioid receptor (hDOR-CHO cells) (Homo sapiens, UniProt P41143). Kind of experiment: Opioid receptor binding assay, δ. To be noted: for δ~ μ: selectivity ratio Ki δ / Ki μ.
The target of experiment [3] is T1, μ-opioid receptor (hMOR-CHO cells) (Homo sapiens, UniProt P35372). Kind of experiment: biochemical. The format is binding.
Experiment [4] deals with T1, μ-opioid receptor (hMOR-CHO cells). Kind of experiment: biochemical.
Experiment [5] has the same target. Kind of experiment: Initial binding screen, estimated Ki. Conditions: read-out: estimated Ki (μ).
Setting [6] is: read-out: Ki δ, [3H]-DADLE, CHO hDOR cells, full binding assay, ±SD.

Chain of δ-opioid receptor (hDOR-CHO cells) (P41143 whole entry): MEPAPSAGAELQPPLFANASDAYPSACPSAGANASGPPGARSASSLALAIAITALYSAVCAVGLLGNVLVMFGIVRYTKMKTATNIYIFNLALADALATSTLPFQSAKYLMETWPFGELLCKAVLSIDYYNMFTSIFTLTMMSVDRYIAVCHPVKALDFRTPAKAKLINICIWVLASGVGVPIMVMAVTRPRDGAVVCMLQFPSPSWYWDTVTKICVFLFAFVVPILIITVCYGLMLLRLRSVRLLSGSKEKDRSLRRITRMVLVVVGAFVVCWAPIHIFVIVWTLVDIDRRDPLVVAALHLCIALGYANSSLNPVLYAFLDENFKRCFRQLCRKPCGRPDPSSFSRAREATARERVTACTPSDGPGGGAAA
Chain of κ-opioid receptor (hKOR-CHO cells) (P41145 whole entry): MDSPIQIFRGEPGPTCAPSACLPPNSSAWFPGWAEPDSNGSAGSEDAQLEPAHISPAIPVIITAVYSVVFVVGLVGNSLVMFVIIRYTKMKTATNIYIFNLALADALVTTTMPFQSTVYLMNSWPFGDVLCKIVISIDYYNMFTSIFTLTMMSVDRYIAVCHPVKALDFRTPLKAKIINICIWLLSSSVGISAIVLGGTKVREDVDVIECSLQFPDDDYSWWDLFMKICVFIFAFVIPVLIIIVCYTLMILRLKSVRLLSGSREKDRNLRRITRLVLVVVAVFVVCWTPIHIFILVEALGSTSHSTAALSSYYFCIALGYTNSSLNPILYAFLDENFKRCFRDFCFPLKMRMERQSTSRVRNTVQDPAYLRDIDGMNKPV
T1 sequence (P35372 whole entry): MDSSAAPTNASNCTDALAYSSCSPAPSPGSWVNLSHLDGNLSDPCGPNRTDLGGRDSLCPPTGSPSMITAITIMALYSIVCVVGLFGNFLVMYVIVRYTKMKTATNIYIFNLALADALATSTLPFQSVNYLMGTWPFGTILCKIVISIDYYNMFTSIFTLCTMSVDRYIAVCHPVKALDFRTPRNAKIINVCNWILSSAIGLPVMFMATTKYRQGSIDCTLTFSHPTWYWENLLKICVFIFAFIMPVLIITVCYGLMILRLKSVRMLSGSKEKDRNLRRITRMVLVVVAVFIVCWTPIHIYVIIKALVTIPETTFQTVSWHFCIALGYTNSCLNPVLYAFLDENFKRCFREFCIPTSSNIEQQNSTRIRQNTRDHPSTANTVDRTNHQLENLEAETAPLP

In the case of “13-phenethyl-2,3,4,9,10,10a-hexahydro-1H-1,4a-(epiminoethano)-phenanthrene-6,9α-diol [Compound 22]”, the Ki in experiment [1] (read-out: Ki κ) was 1810 ± 95 nM; in experiment [2] (setting [6]) it was greater than 10000 nM; in experiment [3] (read-out: Ki μ) it was 72 ± 10 nM. Besides, the κ/μ in experiment [1] is 25. Moreover, the “δ~ μ” value in experiment [2] is given as 139.

Regarding “13-phenethyl-2,3,4,9,10,10a-hexahydro-1H-1,4a-(epiminoethano)-phenanthrene-8,9α-diol [Compound 12]”, the Ki in experiment [1] (read-out: Ki κ) was 525 ± 39 nM; in experiment [2] (setting [6]), greater than 10000 nM; in experiment [3] (read-out: Ki μ), 14 ± 2 nM. The κ/μ in experiment [1] amounted to 38. The “δ~ μ” value in experiment [2] worked out at 714. In addition, the “Ke μ” value in experiment [4] turned out to be 6 ± 1 nM.

As for “13-methyl-2,3,4,9,10,10a-hexahydro-1H-1,4a-(epiminoethano)-phenanthrene-8,9α-diol [Compound 10]”, the Ki was 2020 ± 169 nM in experiment [1] (read-out: Ki κ), 3220 ± 332 nM in experiment [2] (setting [6]) and 30 ± 6 nM in experiment [3] (read-out: Ki μ). In experiment [2], the “δ~ μ” value is listed as 107. In experiment [4], the “Ke μ” value is recorded as 706 ± 135 nM.

For `CN1CCC23CCCC1C2C=Cc1ccc(O)cc13` (stereo not drawn) [Compound 20, 13-methyl-2,3,4,10a-tetrahydro-1H-1,4a-(epiminoethano)phenanthren-6-ol], the Ki in experiment [1] (Ki κ) was 4040 ± 363 nM; in experiment [2], greater than 10000 nM; in experiment [3] (Ki μ), 57 ± 6 nM. In addition, the κ/μ in experiment [1] is 71. In addition, the “δ~ μ” value in experiment [2] came out at 175. Further, the potency estimated from few doses in experiment [5] was 67 nM.

Take “13-phenethyl-2,3,4,9,10,10a-hexahydro-1H-1,4a-(epiminoethano)phenanthrene-8,9β-diol [Compound 13]”: the Ki in experiment [1] (read-out: Ki κ) is 923 ± 32 nM; in experiment [2] (setting [6]) it was greater than 10000 nM. The κ/μ in experiment [1] came to 5. For the same compound, in experiment [2], the “δ~ μ” value came to 56.

Consider `O=C1CC2C3CCCC2(CCN3CCc2ccccc2)c2cc(O)ccc21` (stereo not drawn) [Compound 18, 6-hydroxy-13-phenethyl-3,4,10,10a-tetrahydro-1H-1,4a-(epiminoethano)phenanthren-9(2H)-one], for which the potency estimated from few doses in experiment [5] was 80 nM.

For `Oc1cccc2c1CCC1C3CCCC21CCN3CCc1ccccc1` (stereo not drawn) [Compound 17, 13-phenethyl-2,3,4,9,10,10a-hexahydro-1H-1,4a-(epiminoethano)phenanthrene-8-ol], the values for the Ki in experiment [1] (Ki κ), in experiment [2] and in experiment [3] (Ki μ) were 873 ± 101 nM, 2830 ± 223 nM and 21 ± 5 nM, respectively. Moreover, in experiment [1], the κ/μ is on record as 42. Further, in experiment [2], the “δ~ μ” value was 135. Also, the Kb in experiment [4] was found to be 7 ± 1.8 nM.

`Oc1cccc2c1C=CC1C3CCCC21CCN3CCc1ccccc1` (stereo not drawn) [Compound 16, 13-phenethyl-2,3,4,10a-tetrahydro-1H-1,4a-(epiminoethano)phenanthren-8-ol]: the inhibition constant Ki was 369 ± 26 nM in experiment [1] (Ki κ), 1840 ± 212 nM in experiment [2] and 19 ± 4 nM in experiment [3] (Ki μ). For the same compound, the κ/μ in experiment [1] was 19. For the same compound, the “δ~ μ” value in experiment [2] is on record as 97. This compound also showed a Kb in experiment [4] of 1.7 ± 0.26 nM.

Regarding `O=C1CC2C3CCCC2(CCN3CCc2ccccc2)c2cccc(O)c21` (stereo not drawn) [Compound 9, 8-hydroxy-13-phenethyl-3,4,10,10a-tetrahydro-1H-1,4a-(epiminoethano)phenanthren-9(2H)-one], the potency estimated from few doses in experiment [5] was 297 nM.

On to `Oc1ccc2c(c1)C13CCCC(C1C=C2)N(CCc1ccccc1)CC3` (stereo not drawn) [Compound 23, 13-phenethyl-2,3,4,10a-tetrahydro-1H-1,4a-(epiminoethano)phenanthren-6-ol], for which the results for the Ki in experiment [1] (Ki κ), in experiment [2] and in experiment [3] (Ki μ) were 51 ± 4 nM, 127 ± 31 nM and 2.6 ± 0.35 nM, respectively. In addition, in experiment [1], the κ/μ worked out at 20. Besides, the “δ~ μ” value in experiment [2] is 49. The compound further showed a Kb in experiment [4] of 0.34 ± 0.07 nM.

`CN1CCC23CCCC1C2C=Cc1c(O)cccc13` (stereo not drawn) [Compound 14, 13-methyl-2,3,4,10a-tetrahydro-1H-1,4a-(epiminoethano)phenanthren-8-ol]: the Ki in experiment [1] (Ki κ) was 3890 ± 441 nM; in experiment [2], greater than 10000 nM; in experiment [3] (Ki μ), 67 ± 7 nM. In addition, in experiment [1], the κ/μ is listed as 58. Also, the “δ~ μ” value in experiment [2] is given as 149.

Consider `Oc1ccc2c(c1)C13CCCC(C1CC2)N(CCc1ccccc1)CC3` (stereo not drawn) [Compound 24, 13-phenethyl-2,3,4,9,10,10a-hexahydro-1H-1,4a-(epiminoethano)phenanthren-6-ol], for which the Ki in experiment [1] (Ki κ) was determined as 61 ± 6 nM; in experiment [2] it was 186 ± 25 nM; in experiment [3] (Ki μ), 2.3 ± 0.2 nM. The κ/μ in experiment [1] stood at 27. Moreover, the “δ~ μ” value in experiment [2] was 81. Besides, the Kb in experiment [4] is 0.71 ± 0.13 nM.
